Assay results published in publication PMC7913210 (Pharmaceutics, 2021).

What was measured:
[1] = Parent-metabolite PK model (non-linear mixed-effect modeling) after SC LHA administration; format: in vivo, Sprague-Dawley rats
Protocol: In addition, a combined transit model with first-order absorption was evaluated to better describe absorption phase. In the transit model, the optimal number of transit compartments (NTR) and the mean transit time (MTT) were estimated. The transit model introduced three parameters—Ktr, NTR, and MTT. Two of these three parameters were estimated. The relationship of these parameters is shown in the following equation: MTT= (NTR+1)/Ktr The inter-individual variability (IIV) was assessed using an exponential variability model as following equation: Pi=Ptv ×exp (ETA) where Pi represents the value of the individual PK parameter, Ptv is a typical value for P, and ETA indicates an interindividual random effect with the mean of zero and variance of ω^2. Residual random variability (ε) was calculated using a proportional error model for the three types of observations. Optimal model selection was guided by changes in diagnostic values including twice the negative log like (−2LL), Akaike information Criterion (AIC), Baysian Information Criteria (BIC), visual inspection of various diagnostic plots (goodness of fit plot), and precision of parameter estimates. The visual predictive check (VPC) and boot strap analysis was conducted for non-parametric evaluation of the model. Graphical diagnostics including basic goodness-of-fit plot and other accessory plots were used for single run-based diagnostics during model development. For the final model, the robustness and predictive performance were evaluated using multiple run-based diagnostics such as bootstrapping. A bootstrap procedure was conducted with a total of 1000 bootstrap-resampled datasets from the original dataset. Bootstrap results of median and 95% confidence intervals (CIs, […]) were compared with final parameter estimates. The 95% confidence intervals of parameters obtained from this step were compared with final parameter estimates.

[2] = cited from earlier work
[3] = SC LHA, rats, model estimate (fixed effect)

SMILES	CLm2/F, Apparent Metabolite clearance ([1]; SC LHA, rats, second metabolite (GX), model estimate) [L/h]	potency as anti-arrhythmic agent relative to lidocaine [2]	Vmax, Maximum rate of reaction ([1]; SC LHA, rats, Michaelis-Menten elimination of lidocaine, model estimate)	MTT, Mean Transit Time [1, 3] [h]	Ntr, Number of transit compartments [1, 3]	Fm2, Fraction of the first metabolite converted to second metabolite ([1]; SC LHA, rats, MEGX to GX, model estimate)	CLm1/F, Apparent Metabolite (MEGX) clearance [1, 3] [L/h]	MEGX converted into GX ([1]; model prediction, hyaluronic acid pre-incorporated lidocaine injected subcutaneously)
Cc1cccc(C)c1NC(=O)CN [GX, glycylxylidide]	1.09	~10%	–	–	–	–	–	–
CCN(CC)CC(=O)Nc1c(C)cccc1C [Lidocaine, reference compound]	–	–	423,962.94 nmol/h	0.64	4.97	–	–	–
CCNCC(=O)Nc1c(C)cccc1C [MEGX, monoethylglycylxylidide]	–	approximately 80%	–	–	–	0.47	14.94	about 47%
